Source: patent US20260317337A1, “HETEROCYCLIC COMPOUNDS FOR IMAGING AGGREGATED ALPHA SYNUCLEIN IN THE SYNUCLEINOPATHIES” (THE TRUSTEES OF THE UNIVERSITY OF PENNSYLVANIA, priority 2023, published 2026)

target: α-synuclein fibrils (Homo sapiens, UniProt P37840); test: Competitive radioligand binding with [^3H]BF2846 on α-synuclein fibrils; conditions: [^3H]BF2846, α-synuclein fibrils; mean + Sd, n = 3; read-out: α-syn Ki
Protocol: Competition binding assays were performed with [^3H]BF2846 and [^3H]PIB to measure affinity to Asyn and Aβ. […]

SMILES | Ki
CCOC(=O)c1cnc(N2C3CCC2CN(c2ccccn2)C3)nc1N [Compound 1, Ethyl 4-amino-2-(3-(pyridin-2-yl)-3,8-diazabicyclo[3.2.1]octan-8-yl)pyrimidine-5-carboxylate] | 0.0116 µM
CCOC(=O)c1cnc(N2C3CCC2CN(c2cc4ccccc4cn2)C3)nc1N [Compound 2, Ethyl 4-amino-2-(3-(isoquinolin-3-yl)-3,8-diazabicyclo[3.2.1]octan-8-yl)pyrimidine-5-carboxylate] | 0.0263 µM
CCOC(=O)c1cnc(N2C3CCC2CN(c2cnc4ccccc4c2)C3)nc1N [Compound 3, Ethyl 4-amino-2-(3-(quinolin-3-yl)-3,8-diazabicyclo[3.2.1]octan-8-yl)pyrimidine-5-carboxylate] | 0.0233 µM
CCOC(=O)c1cnc(N2CC3CCC(C2)N3c2ccccn2)nc1N [Compound 4, Ethyl 4-amino-2-(8-(pyridin-2-yl)-3,8-diazabicyclo[3.2.1]octan-3-yl)pyrimidine-5-carboxylate] | 0.0055 µM
CCOC(=O)c1cnc(N2CC3CCC(C2)N3c2cc3ccccc3cn2)nc1N [Compound 5, Ethyl 4-amino-2-(8-(isoquinolin-3-yl)-3,8-diazabicyclo[3.2.1]octan-3-yl)pyrimidine-5-carboxylate] | 0.0585 µM
CCOC(=O)c1cnc(N2CC3CCC(C2)N3c2cnc3ccccc3c2)nc1N [Compound 6, Ethyl 4-amino-2-(8-(quinolin-3-yl)-3,8-diazabicyclo[3.2.1]octan-3-yl)pyrimidine-5-carboxylate] | 0.0099 µM
CCOC(=O)c1cnc(N2CCCN(c3cnc4ccccc4c3)CC2)nc1N [Compound 8, Ethyl 4-amino-2-(4-(quinolin-3-yl)-1,4-diazepan-1-yl)pyrimidine-5-carboxylate] | 0.0152 µM
CCOC(=O)c1cnc(N2CCN(c3ccccn3)CC2)nc1N [Compound 9, Ethyl 4-amino-2-(4-(pyridin-2-yl)piperazin-1-yl)pyrimidine-5-carboxylate] | 0.004 µM
CCOC(=O)c1cnc(N2CCN(c3nc4ccccc4o3)CC2)nc1N [Compound 10, Ethyl 4-amino-2-(4-(benzo[d]oxazol-2-yl)piperazin-1-yl)pyrimidine-5-carboxylate] | 0.0025 µM
CCOC(=O)c1cnc(N2CCN(c3nc4ccccc4s3)CC2)nc1N [Compound 11, Ethyl 4-amino-2-(4-(benzo[d]thiazol-2-yl)piperazin-1-yl)pyrimidine-5-carboxylate] | 0.0129 µM
CCOC(=O)c1cnc(N2C3CCC2CN(c2nc4ccccc4s2)C3)nc1N [Compound 12, Ethyl 4-amino-2-(3-(benzo[d]thiazol-2-yl)-3,8-diazabicyclo[3.2.1]octan-8-yl)pyrimidine-5-carboxylate] | 0.0234 µM
CCOC(=O)c1cnc(N2CCN(c3cc4ccccc4cn3)CC2)nc1N [Compound 13, Ethyl 4-amino-2-(4-(isoquinolin-3-yl)piperazin-1-yl)pyrimidine-5-carboxylate] | 0.0121 µM
CCOC(=O)c1cnc(N2CCN(c3cnc4ccccc4c3)CC2)nc1N [Compound 14, Ethyl 4-amino-2-(4-(quinolin-3-yl)piperazin-1-yl)pyrimidine-5-carboxylate] | 0.0031 µM
CCOC(=O)c1cnc(N2CCN(c3ccc4ccccc4n3)CC2)nc1N [Compound 15, Ethyl 4-amino-2-(4-(quinolin-2-yl)piperazin-1-yl)pyrimidine-5-carboxylate] | 0.0108 µM
CCOC(=O)c1cnc(N2CCN(c3cnc4ccccc4n3)CC2)nc1N [Compound 16, Ethyl 4-amino-2-(4-(quinoxalin-2-yl)piperazin-1-yl)pyrimidine-5-carboxylate] | 0.0024 µM
COc1ccc(NC(=O)c2cnc(N3C4CCC3CN(c3cc5ccccc5cn3)C4)nc2N)cc1 [Compound 19, 4-Amino-2-(3-(isoquinolin-3-yl)-3,8-diazabicyclo[3.2.1]octan-8-yl)-N-(4-methoxyphenyl)pyrimidine-5-carboxamide] | 0.045 µM
COc1ccc(NC(=O)c2cnc(N3CC4CCC(C3)N4c3cc4ccccc4cn3)nc2N)cc1 [Compound 21, 4-Amino-2-(8-(isoquinolin-3-yl)-3,8-diazabicyclo[3.2.1]octan-3-yl)-N-(4-methoxyphenyl)pyrimidine-5-carboxamide] | 0.255 µM
Nc1nc(N2CCN(c3ccccn3)CC2)ncc1C(=O)OCCO [Compound 37, 2-Hydroxyethyl 4-amino-2-(4-(pyridin-2-yl)piperazin-1-yl)pyrimidine-5-carboxylate] | 0.0414 µM
Cc1cnc(N2CCN(c3ccccn3)CC2)nc1N [Compound 39, 5-Methyl-2-(4-(pyridin-2-yl)piperazin-1-yl)pyrimidin-4-amine] | 0.0841 µM
N#Cc1cnc(N2CCN(c3ccccn3)CC2)nc1N [Compound 41, 4-Amino-2-(4-(pyridin-2-yl)piperazin-1-yl)pyrimidine-5-carbonitrile] | 0.0075 µM
COc1ccc(NC(=O)c2cnc(Cl)nc2)cc1 [Compound 43, 2-Chloro-N-(4-methoxyphenyl)pyrimidine-5-carboxamide] | 0.0065 µM
COc1ccc(C(=O)Nc2ccc(N3C4CCC3CN(c3ccccn3)C4)cc2)cc1 [Compound 103, 4-methoxy-N-(4-(3-(pyridin-2-yl)-3,8-diazabicyclo[3.2.1]octan-8-yl)phenyl)benzamide] | 0.0061 ± 0.0021 µM
COc1ccc(C(=O)Nc2ccc(N3C4CCC3CN(c3cnc5ccccc5n3)C4)cc2)cc1 [Compound 105, 4-methoxy-N-(4-(3-(quinoxalin-2-yl)-3,8-diazabicyclo[3.2.1]octan-8-yl)phenyl)benzamide] | 0.0476 ± 0.014 µM
COc1ccc(C(=O)Nc2ccc(N3C4CCC3CN(c3ccccn3)C4)cn2)cc1 [Compound 110, 4-methoxy-N-(5-(3-(pyridin-2-yl)-3,8-diazabicyclo[3.2.1]octan-8-yl)pyridin-2-yl)benzamide] | 0.0441 ± 0.032 µM
CCOC(=O)c1cnc(N2CCN(c3ncccn3)CC2)nc1N [Compound 119, Ethyl 4-amino-2-(4-(pyrimidin-2-yl)piperazin-1-yl)pyrimidine-5-carboxylate] | 0.0195 µM
CCOC(=O)c1cnc(N2CCN(c3cnccn3)CC2)nc1N [Compound 121, Ethyl 4-amino-2-(4-(pyrazin-2-yl)piperazin-1-yl)pyrimidine-5-carboxylate] | 0.0084 µM
CCOC(=O)c1cnc(N2CCN(c3nccs3)CC2)nc1N [Compound 123, Ethyl 4-amino-2-(4-(thiazol-2-yl)piperazin-1-yl)pyrimidine-5-carboxylate] | 0.0511 µM

More lines, now with the values ahead:

Ki | SMILES
0.0089 µM | CCOC(=O)c1cnc(N2CCCN(c3ccccn3)CC2)nc1N [Compound 7, Ethyl 4-amino-2-(4-(pyridin-2-yl)-1,4-diazepan-1-yl)pyrimidine-5-carboxylate]
0.0128 µM | CCOC(=O)c1cnc(N2CCN(c3ccc(OC)cc3)CC2)nc1N [Compound 17, Ethyl 4-amino-2-(4-(4-methoxyphenyl)piperazin-1-yl)pyrimidine-5-carboxylate]
0.006 µM | COc1ccc(NC(=O)c2cnc(N3CCN(c4nc5ccccc5o4)CC3)nc2N)cc1 [Compound 26, 4-Amino-2-(4-(benzo[d]oxazol-2-yl)piperazin-1-yl)-N-(4-methoxyphenyl)pyrimidine-5-carboxamide]
0.0011 µM | COc1ccc(NC(=O)c2cnc(N3CCN(c4nc5ccccc5s4)CC3)nc2N)cc1 [Compound 27, 4-Amino-2-(4-(benzo[d]thiazol-2-yl)piperazin-1-yl)-N-(4-methoxyphenyl)pyrimidine-5-carboxamide]
0.0445 µM | COc1ccc(NC(=O)c2cnc(N3CCN(c4ccc(OC)cc4)CC3)nc2N)cc1 [Compound 33, 4-Amino-N-(4-methoxyphenyl)-2-(4-(4-methoxyphenyl)piperazin-1-yl)pyrimidine-5-carboxamide]
0.01 µM | Nc1nc(N2CCN(c3ccccn3)CC2)ncc1C(=O)Nc1ccc(F)cc1 [Compound 34, 4-Amino-N-(4-fluorophenyl)-2-(4-(pyridin-2-yl)piperazin-1-yl)pyrimidine-5-carboxamide]
0.0219 ± 0.0097 µM | COc1ccc(C(=O)Nc2ccc(N3CCC4(CC3)CCN(c3ccccn3)C4)cc2)cc1 [Compound 101, 4-methoxy-N-(4-(2-(pyridin-2-yl)-2,8-diazaspiro[4.5]decan-8-yl)phenyl)benzamide]
0.0087 ± 0.0006 µM | COc1ccc(C(=O)Nc2ccc(N3CCCN(c4ccccn4)CC3)cc2)cc1 [Compound 107, 4-methoxy-N-(4-(4-(pyridin-2-yl)-1,4-diazepan-1-yl)phenyl)benzamide]
0.005 ± 0.00034 µM | COc1ccc(C(=O)Nc2ccc(N3CCN(c4ccccn4)CC3)cn2)cc1 [Compound 109, 4-methoxy-N-(5-(4-(pyridin-2-yl)piperazin-1-yl)pyridin-2-yl)benzamide]
0.0286 ± 0.033 µM | COc1ccc(C(=O)Nc2ccc(N3CC(OC)C3)cc2)cc1 [Compound 115, 4-methoxy-N-(4-(3-methoxyazetidin-1-yl)phenyl)benzamide]
0.0127 ± 0.0023 µM | O=C(Nc1ccc(N2C3CCC2CN(c2ccccn2)C3)cc1)c1ccc(OCCF)cc1 [Compound 116, 4-(2-fluoroethoxy)-N-(4-(3-(pyridin-2-yl)-3,8-diazabicyclo[3.2.1]octan-8-yl)phenyl)benzamide]
0.142 µM | COc1ccc(NC(=O)c2cnc(N3CCN(c4cccnc4)CC3)nc2N)cc1 [Compound 118, 4-Amino-N-(4-methoxyphenyl)-2-(4-(pyridin-3-yl)piperazin-1-yl)pyrimidine-5-carboxamide]
0.0299 µM | COc1ccc(NC(=O)c2cnc(N3CCN(c4nccs4)CC3)nc2N)cc1 [Compound 124, 4-Amino-N-(4-methoxyphenyl)-2-(4-(thiazol-2-yl)piperazin-1-yl)pyrimidine-5-carboxamide]
0.522 µM | COc1ccc(NC(=O)c2cnc(N3CC4CCC(C3)N4c3cnc4ccccc4c3)nc2N)cc1 [Compound 126, 4-Amino-N-(4-methoxyphenyl)-2-(8-(quinolin-3-yl)-3,8-diazabicyclo[3.2.1]octan-3-yl)pyrimidine-5-carboxamide]
0.00126 µM | Nc1nc(N2CCN(c3nc4ccccc4o3)CC2)ncc1C(=O)Nc1ccc(OCCF)cc1 [Compound 133, 4-Amino-2-(4-(benzo[d]oxazol-2-yl)piperazin-1-yl)-N-(4-(2-fluoroethoxy)phenyl)pyrimidine-5-carboxamide]
